Source: patent US20230373974A1, “MODULATORS OF CYSTIC FIBROSIS TRANSMEMBRANE CONDUCTANCE REGULATOR” (VERTEX PHARMACEUTICALS INCORPORATED, priority 2020, published 2023)
pEC50: −log10 of the molar value.

Biological target: T1, F508del in NIH 3T3 cells (Homo sapiens, UniProt P13569, DEL508-508)
T1 construct: expressed in transfected cells
Assay: 3T3 assay: membrane potential optical assay for F508del correction
Assay type: cell-based, mouse
Details: F508del NIH 3T3 cells; for pEC50: incubated with compound 18-24 hours at 37° C., forskolin activation; for Emax: NIH3T3, efficacy compared to lumacaftor in combination with acutely added 300 nM Ivacaftor, read-out: 3T3 Max Activity (%)
From the text: Membrane Potential Optical Methods for Assaying F508del Modulation Properties of Compounds The assay utilizes fluorescent voltage sensing dyes to measure changes in membrane potential using a fluorescent plate reader (e.g., FLIPR III, Molecular Devices, Inc.) as a readout for increase in functional F508del in NIH 3T3 cells. The driving force for the response is the creation of a chloride ion gradient in conjunction with channel activation by a single liquid addition step after the cells have previously been treated with compounds and subsequently loaded with a voltage sensing dye. 2. Identification of Corrector Compounds To identify correctors of F508del, a single-addition HTS assay format was developed. This HTS assay utilizes fluorescent voltage sensing dyes to measure changes in membrane potential on the FLIPR III as a measurement for increase in gating (conductance) of F508del in F508del NIH 3T3 cells. The F508del NIH 3T3 cell cultures were incubated with the corrector compounds at a range of concentrations for 18-24 hours at 37° C., and subsequently loaded with a redistribution dye. The driving force for the response is a Cl^− ion gradient in conjunction with channel activation with forskolin in a single liquid addition step using a fluorescent plate reader such as FLIPR III. […] Solutions […] Chloride-free bath solution: Chloride salts in Bath Solution #1 (above) are substituted with gluconate salts. 4. Cell Culture NIH3T3 mouse fibroblasts stably expressing F508del are used for optical measurements of membrane potential. The cells are maintained at 37° C. in 5% CO2 and 90% humidity in Dulbecco's modified Eagle's medium supplemented with 2 mM glutamine, 10% fetal bovine serum, 1×NEAA, b-ME, 1×pen/strep, and 25 mM HEPES in 175 cm^2 culture flasks. For all optical assays, the cells were seeded at ˜20,000/well in 384-well Matrigel-coated plates. For the correction assays, the cells are cultured at 37° C. with and without compounds for 16-24 hours.

T1 sequence (P13569 with tags, fused parts or gaps DEL508-508): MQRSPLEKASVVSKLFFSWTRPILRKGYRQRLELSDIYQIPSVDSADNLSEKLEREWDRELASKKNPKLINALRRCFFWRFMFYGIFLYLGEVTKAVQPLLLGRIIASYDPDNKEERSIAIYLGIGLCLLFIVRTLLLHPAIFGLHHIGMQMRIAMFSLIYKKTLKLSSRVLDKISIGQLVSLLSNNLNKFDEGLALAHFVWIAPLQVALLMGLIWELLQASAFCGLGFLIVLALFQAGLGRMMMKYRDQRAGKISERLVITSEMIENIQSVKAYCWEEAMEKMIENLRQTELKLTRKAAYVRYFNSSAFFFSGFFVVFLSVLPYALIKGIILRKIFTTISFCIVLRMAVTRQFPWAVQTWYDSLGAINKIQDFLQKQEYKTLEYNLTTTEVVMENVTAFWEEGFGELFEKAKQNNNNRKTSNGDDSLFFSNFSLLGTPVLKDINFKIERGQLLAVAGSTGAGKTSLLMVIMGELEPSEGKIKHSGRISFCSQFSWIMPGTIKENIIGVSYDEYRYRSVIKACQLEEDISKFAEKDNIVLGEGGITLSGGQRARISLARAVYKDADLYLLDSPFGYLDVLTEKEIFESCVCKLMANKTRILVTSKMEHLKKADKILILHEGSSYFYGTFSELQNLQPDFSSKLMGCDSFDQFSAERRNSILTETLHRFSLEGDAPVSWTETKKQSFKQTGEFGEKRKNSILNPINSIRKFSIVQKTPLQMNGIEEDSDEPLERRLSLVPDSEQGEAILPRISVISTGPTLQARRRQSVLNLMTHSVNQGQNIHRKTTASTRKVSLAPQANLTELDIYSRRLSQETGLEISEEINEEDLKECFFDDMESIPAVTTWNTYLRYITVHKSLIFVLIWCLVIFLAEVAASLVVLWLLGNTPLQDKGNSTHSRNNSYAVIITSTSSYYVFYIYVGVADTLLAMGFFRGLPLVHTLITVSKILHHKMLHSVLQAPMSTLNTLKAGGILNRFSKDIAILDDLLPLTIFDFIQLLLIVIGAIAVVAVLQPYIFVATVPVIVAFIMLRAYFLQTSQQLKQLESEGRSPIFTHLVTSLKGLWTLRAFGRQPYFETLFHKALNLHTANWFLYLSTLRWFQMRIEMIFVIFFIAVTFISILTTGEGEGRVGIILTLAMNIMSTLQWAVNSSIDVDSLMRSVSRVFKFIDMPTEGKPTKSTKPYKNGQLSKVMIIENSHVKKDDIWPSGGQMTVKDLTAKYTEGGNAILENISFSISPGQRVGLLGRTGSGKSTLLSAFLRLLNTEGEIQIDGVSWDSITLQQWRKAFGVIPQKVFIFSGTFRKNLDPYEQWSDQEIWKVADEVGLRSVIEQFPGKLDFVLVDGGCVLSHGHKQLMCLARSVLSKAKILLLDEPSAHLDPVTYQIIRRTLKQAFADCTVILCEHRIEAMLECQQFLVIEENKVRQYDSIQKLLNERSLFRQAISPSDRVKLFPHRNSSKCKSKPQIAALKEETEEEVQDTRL

Q: Which results are given for `Cc1ccccc1Oc1nc(NS(=O)(=O)c2cnn(C)c2)nc2c1C(C)(C)CCC2` [Compound 1, N-[5,5-dimethyl-4-(2-methylphenoxy)-7,8-dihydro-6H-quinazolin-2-yl]-1-methyl-pyrazole-4-sulfonamide]?
A: pEC50: 5.52 to 6.00; Emax: > 60%

Q: How did the pEC50 turn out when `Cc1ccccc1Oc1nc(NS(=O)(=O)c2cnn(C)c2)nc2c1CCC(C)(C)C2` [Compound 2, N-[7,7-Dimethyl-4-(2-methylphenoxy)-6,8-dihydro-5H-quinazolin-2-yl]-1-methyl-pyrazole-4-sulfonamide] was run?
A: The pEC50 was 5.52 to 6.00.

Q: What about the Emax of the same molecule?
A: The Emax was over 60%.

Q: How did the pEC50 turn out when `Cc1ccccc1Oc1nc(NS(=O)(=O)c2cnn(C)c2)nc2c1CC(C)(C)CC2` [Compound 3, N-[6,6-Dimethyl-4-(2-methylphenoxy)-7,8-dihydro-5H-quinazolin-2-yl]-1-methyl-pyrazole-4-sulfonamide] was run?
A: Its pEC50 is 5.52 to 6.00.

Q: And the Emax?
A: Its Emax is over 60%.

Q: `O=S(=O)(Nc1nc2c(c(Oc3ccccc3)n1)CCCC2)c1ccccc1` [Compound 4, N-(4-phenoxy-5,6,7,8-tetrahydroquinazolin-2-yl)benzenesulfonamide] was tested. Which pEC50 did it give?
A: Its pEC50 is 4.52 to 5.52.

Q: And the Emax?
A: The Emax was over 60%.

Q: Which results are given for `Cc1ccccc1Oc1nc(NS(=O)(=O)c2cnn(C)c2)nc2c1CCCC2(C)C` [Compound 5, N-[8,8-Dimethyl-4-(2-methylphenoxy)-6,7-dihydro-5H-quinazolin-2-yl]-1-methyl-pyrazole-4-sulfonamide]?
A: pEC50: 4.52 to 5.52; Emax: 30 to 60%

Q: `O=S(=O)(Nc1nc2c(c(Oc3ccccc3)n1)CCC2)c1ccccc1` [Compound 6, N-(4-phenoxy-6,7-dihydro-5H-cyclopenta[d]pyrimidin-2-yl)benzenesulfonamide] was tested. Which pEC50 did it give?
A: Its pEC50 is 4.52 to 5.52.

Q: And the Emax?
A: The Emax was over 60%.

Q: `Cc1ccccc1Oc1nc(NS(=O)(=O)c2cnn(C)c2)nc2c1CCc1ccccc1-2` [Compound 7] was tested. Which pEC50 did it give?
A: Its pEC50 is over 6.00.

Q: What about the Emax of the same molecule?
A: The Emax was over 60%.

Q: `O=S(=O)(NC1=Nc2ccccc2C(c2ccccc2)S1)c1ccccc1` (stereo not drawn) [Compound 9, N-(4-phenyl-4H-3,1-benzothiazin-2-yl)benzenesulfonamide] was tested. Which pEC50 did it give?
A: Its pEC50 is 4.52 to 5.52.

Q: How did the pEC50 turn out when `CC(C)(C)c1ccccc1Oc1nc2ccccc2nc1NS(=O)(=O)c1ccccc1` [Compound 10, N-[3-(2-tert-butylphenoxy)quinoxalin-2-yl]benzenesulfonamide] was run?
A: Its pEC50 is over 6.00.

Q: How did the pEC50 turn out when `Cc1cccc(C)c1Oc1nc2ccccc2nc1NS(=O)(=O)c1ccccc1` [Compound 11, N-[3-(2,6-Dimethylphenoxy)quinoxalin-2-yl]benzenesulfonamide] was run?
A: The pEC50 was 4.52 to 5.52.

Q: What does the source list for `O=S(=O)(Nc1nc2ccccc2nc1N1CCCCC1)c1ccccc1` [Compound 12, N-[3-(1-piperidyl)quinoxalin-2-yl]benzenesulfonamide]?
A: pEC50: 4.52 to 5.52; Emax: 30 to 60%

Q: How did the pEC50 turn out when `Cc1cc(C)c(Oc2nc3ccccc3nc2NS(=O)(=O)c2ccccc2)c(C)c1` [Compound 13] was run?
A: Its pEC50 is 5.52 to 6.00.

Q: What about the Emax of the same molecule?
A: The Emax was 30 to 60%.

Q: What does the source list for `Cc1ccc(Oc2nc3ccccc3nc2NS(=O)(=O)c2ccccc2)c(C)c1` [Compound 14]?
A: pEC50: 5.52 to 6.00; Emax: 30 to 60%

Q: How did the pEC50 turn out when `Cc1ccccc1Oc1nc2ccccc2nc1NS(=O)(=O)c1ccccc1` [Compound 15] was run?
A: The pEC50 was 4.52 to 5.52.

Q: What about the Emax of the same molecule?
A: Its Emax is 30 to 60%.

Q: With `O=S(=O)(Nc1nc(Oc2ccccc2)nc2ccccc12)c1ccccc1` [Compound 16] as the molecule, how does the Emax read?
A: Its Emax is under 30%.

Q: How did the Emax turn out when `Cc1cc(C)cc(-c2nc(NS(=O)(=O)c3ccccc3)c3ccc(C(C)(C)C)nc3n2)c1` [Compound 17] was run?
A: The Emax was under 30%.

Q: With `Cc1ccc(-c2nc(NS(=O)(=O)c3ccccc3)c3ccc(C(C)(C)C)nc3n2)c(C)c1` [Compound 18] as the molecule, how does the Emax read?
A: Its Emax is under 30%.

Q: `Cc1cc(C)c(Oc2nc(NS(=O)(=O)c3ccccc3)c3ccc(C(C)(C)C)nc3n2)c(C)c1` [Compound 19] was tested. Which Emax did it give?
A: The Emax was under 30%.

Q: `O=S(=O)(Nc1nc2c(s1)-c1ccccc1CC2)c1ccccc1` [Compound 20, N-(4,5-Dihydrobenzo[g][1,3]benzothiazol-2-yl) benzenesulfonamide] was tested. Which pEC50 did it give?
A: The pEC50 was 4.52 to 5.52.

Q: For `CC(C)(O)C1CCc2nc(NS(=O)(=O)c3ccccc3)sc2C1` (stereo not drawn) [Compound 21], which Emax is on record?
A: Its Emax is under 30%.

Q: For `CC(C)N1CCc2nc(NS(=O)(=O)c3ccccc3)sc2C1` [Compound 22], which Emax is on record?
A: The Emax was under 30%.

Q: With `CC1CCc2nc(NS(=O)(=O)c3ccccc3)sc2C1` (stereo not drawn) [Compound 24] as the molecule, how does the Emax read?
A: The Emax was under 30%.

Q: With `CC(C)(C)C1CCc2nc(NS(=O)(=O)c3ccccc3)sc2C1` (stereo not drawn) [Compound 25] as the molecule, how does the pEC50 read?
A: The pEC50 was 5.52 to 6.00.

Q: What about the Emax of the same molecule?
A: Its Emax is 30 to 60%.

Q: With `O=S(=O)(Nc1nc2c(s1)CCc1ccccc1-2)c1ccccc1` [Compound 26] as the molecule, how does the pEC50 read?
A: Its pEC50 is 5.52 to 6.00.

Q: And the Emax?
A: Its Emax is 30 to 60%.

Q: Which results are given for `O=S(=O)(Nc1nc2c(s1)Cc1ccccc1-2)c1ccccc1` [Compound 27]?
A: pEC50: 4.52 to 5.52; Emax: 30 to 60%

Q: How did the pEC50 turn out when `Cc1cc(C)cc(-c2nc(NS(=O)(=O)c3ccccc3)nc3ccccc23)c1` [Compound 28, N-[4-(3,5-Dimethylphenyl)quinazolin-2-yl]benzenesulfonamide] was run?
A: Its pEC50 is 5.52 to 6.00.

Q: With `O=S(=O)(Nc1nc(-c2ccccc2)c2ccn(-c3ccccc3)c2n1)c1ccccc1` [Compound 29, N-(4,7-Diphenylpyrrolo[2,3-d]pyrimidin-2-yl)benzenesulfonamide] as the molecule, how does the pEC50 read?
A: The pEC50 was over 6.00.

Q: How did the pEC50 turn out when `Cc1cc(C)cc(-c2nc(NS(=O)(=O)c3ccccc3)nc3nc(C(C)(C)C)ccc23)c1` [Compound 30, N-[7-tert-butyl-4-(3,5-dimethylphenyl)pyrido[2,3-d]pyrimidin-2-yl]benzenesulfonamide] was run?
A: The pEC50 was over 6.00.

Q: How did the pEC50 turn out when `O=S(=O)(Nc1nc(Oc2ccccc2)c2ccccc2n1)c1ccccc1` [Compound 31, N-(4-phenoxyquinazolin-2-yl)benzenesulfonamide] was run?
A: Its pEC50 is 4.52 to 5.52.

Q: With `Nc1cccc(S(=O)(=O)Nc2nc(-c3ccccc3)c3ccn(-c4ccccc4)c3n2)c1` [Compound 32, 3-Amino-N-(4,7-diphenylpyrrolo[2,3-d]pyrimidin-2-yl)benzenesulfonamide] as the molecule, how does the pEC50 read?
A: The pEC50 was over 6.00.

Q: How did the pEC50 turn out when `Cc1cc(C)c(-n2nc(NS(=O)(=O)c3cccc(N(C)C)c3)c3ccc(C(C)(C)C)nc32)c(C)c1` [Compound 34, N-[6-tert-butyl-1-(2,4,6-trimethylphenyl)pyrazolo[3,4-b]pyridin-3-yl]-3-(dimethylamino)benzenesulfonamide] was run?
A: The pEC50 was over 6.00.

Q: And the Emax?
A: Its Emax is over 60%.

Q: With `Cc1cc(C)c(-n2nc(NS(=O)(=O)c3cn[nH]c3)c3ccc(C(C)(C)C)nc32)c(C)c1` [Compound 35, N-[6-tert-butyl-1-(2,4,6-trimethylphenyl)pyrazolo[3,4-b]pyridin-3-yl]-1H-pyrazole-4-sulfonamide] as the molecule, how does the pEC50 read?
A: The pEC50 was 5.52 to 6.00.

Q: And the Emax?
A: Its Emax is over 60%.

Q: `Cc1cc(C)c(-n2nc(NS(=O)(=O)c3ccc(N)cc3)c3ccc(C(C)(C)C)nc32)c(C)c1` [Compound 36, 4-Amino-N-[6-tert-butyl-1-(2,4,6-trimethylphenyl)pyrazolo[3,4-b]pyridin-3-yl]benzenesulfonamide] was tested. Which pEC50 did it give?
A: The pEC50 was 5.52 to 6.00.

Q: `Cc1cc(C)cc(-n2nc(NS(=O)(=O)c3ccccc3)c3ccc(C(C)(C)C)nc32)c1` [Compound 37, N-[6-tert-Butyl-1-(3,5-dimethylphenyl)pyrazolo[3,4-b]pyridin-3-yl]benzenesulfonamide] was tested. Which pEC50 did it give?
A: The pEC50 was over 6.00.

Q: What about the Emax of the same molecule?
A: Its Emax is 30 to 60%.

Q: `CC(C)(C)c1ccc2c(NS(=O)(=O)c3ccccc3)nn(-c3cccc(Cl)c3)c2n1` [Compound 38, N-[6-tert-butyl-1-(3-chlorophenyl)pyrazolo[3,4-b]pyridin-3-yl]benzenesulfonamide] was tested. Which pEC50 did it give?
A: The pEC50 was over 6.00.

Q: And the Emax?
A: Its Emax is 30 to 60%.

Q: `CC(C)n1nc(NS(=O)(=O)c2ccccc2)c2ccc(C(C)(C)C)nc21` [Compound 39, N-(6-tert-butyl-1-isopropyl-pyrazolo[3,4-b]pyridin-3-yl)benzenesulfonamide] was tested. Which pEC50 did it give?
A: The pEC50 was 5.52 to 6.00.

Q: Which results are given for `CC(C)(C)c1ccc2c(NS(=O)(=O)c3ccccc3)nn(-c3ccccc3)c2n1` [Compound 40]?
A: pEC50: > 6.00; Emax: 30 to 60%

Q: For `CC(C)CCn1nc(NS(=O)(=O)c2ccccc2)c2ccc(C(C)(C)C)nc21` [Compound 41], which Emax is on record?
A: The Emax was under 30%.

Q: `Cc1cc(C)c(-n2nc(NS(=O)(=O)c3cccc(N)n3)c3ccc(C(C)(C)C)nc32)c(C)c1` [Compound 42] was tested. Which pEC50 did it give?
A: Its pEC50 is 5.52 to 6.00.

Q: And the Emax?
A: The Emax was 30 to 60%.

Q: With `Cc1ccc(-n2nc(NS(=O)(=O)c3ccccc3)c3ccc(C(C)(C)C)nc32)c(C)c1` [Compound 43] as the molecule, how does the pEC50 read?
A: Its pEC50 is over 6.00.

Q: And the Emax?
A: Its Emax is 30 to 60%.

Q: Which results are given for `Cc1ccc(-n2nc(NS(=O)(=O)c3ccccc3)c3ccc(C(C)(C)C)nc32)cc1` [Compound 44]?
A: pEC50: > 6.00; Emax: 30 to 60%

Q: What does the source list for `Cc1ccccc1-n1nc(NS(=O)(=O)c2ccccc2)c2ccc(C(C)(C)C)nc21` [Compound 45]?
A: pEC50: > 6.00; Emax: 30 to 60%

Q: What does the source list for `Cc1cc(C)cc(-n2nc(NS(=O)(=O)c3ccccc3)c3cc(C(C)C)cnc32)c1` [Compound 46]?
A: pEC50: > 6.00; Emax: 30 to 60%

Q: With `C=C(C)c1cnc2c(c1)c(NS(=O)(=O)c1ccccc1)nn2-c1cc(C)cc(C)c1` [Compound 47] as the molecule, how does the pEC50 read?
A: Its pEC50 is over 6.00.

Q: And the Emax?
A: Its Emax is 30 to 60%.

Q: What does the source list for `Cc1cc(C)cc(-n2nc(NS(=O)(=O)c3ccccc3)c3cc(Br)cnc32)c1` [Compound 48]?
A: pEC50: > 6.00; Emax: 30 to 60%

Q: For `CC(C)C(C)n1nc(NS(=O)(=O)c2ccccc2)c2ccc(C(C)(C)C)nc21` (stereo not drawn) [Compound 49], which Emax is on record?
A: The Emax was under 30%.
